Measurements published in ChEMBL document CHEMBL1124723, “Selective inhibition of gamma-aminobutyric acid aminotransferase by (3R,4R),(3S,4S)- and (3R,4S),(3S,4R)-4-amino-5-fluoro-3-phenylpentanoic acids” (J Med Chem, 1990).
pKi: −log10 of the molar value.

Key:
[1] = Binding affinity against L-glutamate decarboxylase in pig brain; assay type: tissue-based, Sus scrofa
[2] = molecular target: 4-aminobutyrate aminotransferase, mitochondrial (Sus scrofa, UniProt P80147); experiment: Binding affinity against Gamma-amino-N-butyrate transaminase in pig brain; assay type: tissue-based
4-aminobutyrate aminotransferase, mitochondrial, sequence (P80147 whole entry): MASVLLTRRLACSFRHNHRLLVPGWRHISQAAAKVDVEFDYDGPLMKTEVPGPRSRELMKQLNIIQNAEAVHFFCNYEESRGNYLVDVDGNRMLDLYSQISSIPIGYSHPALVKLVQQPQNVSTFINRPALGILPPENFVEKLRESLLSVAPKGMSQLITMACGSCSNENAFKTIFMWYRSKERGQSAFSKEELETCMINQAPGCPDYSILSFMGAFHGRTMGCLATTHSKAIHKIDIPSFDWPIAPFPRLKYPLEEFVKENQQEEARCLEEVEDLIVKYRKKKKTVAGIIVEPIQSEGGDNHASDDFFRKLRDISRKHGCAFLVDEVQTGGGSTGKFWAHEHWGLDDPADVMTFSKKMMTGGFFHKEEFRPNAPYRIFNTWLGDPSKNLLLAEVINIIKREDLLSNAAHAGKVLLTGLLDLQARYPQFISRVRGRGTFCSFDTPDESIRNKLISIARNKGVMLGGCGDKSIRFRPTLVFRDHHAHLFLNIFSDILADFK

Row | Structure (SMILES) | pKi [1] | pKi [2]
1 | NC(CF)CCC(=O)O (stereo not drawn) | 4.15 | 
2 | N[C@H](CF)[C@@H](CC(=O)O)c1ccccc1 |  | 3.00
3 | N[C@@H](CF)[C@@H](CC(=O)O)c1ccccc1 |  | 2.10
